Experimental findings from patent US6624165B2, “Cyclopentene derivatives useful as antagonists of the motilin receptor” (Ortho-McNeil Pharmaceutical, Inc., priority 2000, dated 2003) are described below.

In general, % Inhibition refers to the share of the control response that was lost under treatment.

This experiment deals with T1, motilin receptors located on the colon of mature rabbits (Oryctolagus cuniculus, UniProt G1T803).
T1 construct: The muscle tissues were homogenized in 10 volumes of buffer; from tissue; host or cells: colon smooth muscle of mature New Zealand rabbits, crude membrane homogenate
T1 sequence (G1T803 1-400): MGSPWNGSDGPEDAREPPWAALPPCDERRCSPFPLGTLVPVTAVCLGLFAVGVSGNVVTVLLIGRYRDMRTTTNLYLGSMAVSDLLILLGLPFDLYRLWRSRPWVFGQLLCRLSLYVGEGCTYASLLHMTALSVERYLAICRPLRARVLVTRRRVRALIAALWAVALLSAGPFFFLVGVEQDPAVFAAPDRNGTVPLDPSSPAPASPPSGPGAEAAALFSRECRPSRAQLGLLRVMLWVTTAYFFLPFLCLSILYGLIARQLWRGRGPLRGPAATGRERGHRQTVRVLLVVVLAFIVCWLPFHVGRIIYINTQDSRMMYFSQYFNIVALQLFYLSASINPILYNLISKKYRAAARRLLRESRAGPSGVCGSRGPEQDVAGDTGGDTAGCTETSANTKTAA
Description: Competition with radiolabeled motilin (porcine) for motilin receptors of rabbit colon membranes. Type of experiment: binding. To be noted: @100 nM, I125 motilin (porcine). The procedure: A compound of the invention was tested for its ability to compete with radiolabeled motilin (porcine) for the motilin receptors located on the colon of mature rabbits. The colon from mature New Zealand rabbits was removed, dissected free from the mucosa and serosa layers, and diced into small pieces. The muscle tissues were homogenized in 10 volumes of buffer (50 mM Tris-Cl 10 MM MgCl2, 0.1 mg/mL bactracin, and 0.25 mM Peflabloc, pH 7.5) in a Polytron (29,000 rpm, 4×15 seconds). The homogenate was centrifuged at 1000×g for 15 min. and the supernatant discarded. The pellet was washed twice before being suspended in homogenizing buffer. This crude homogenate was then passed first through a 19 gauge needle then a 23 gauge needle to further suspend the material and stored at −80° C. […] The pellet was counted in the gamma counter to determine the percentage of […] motilin and thereby the percent inhibition of the test compound.
% Inhibition was Determined by Standard Techniques

Regarding `O=C(Nc1nncs1)N(CC1=CC(Cc2ccccc2)(NC(=O)C(Cl)(Cl)Cl)CC1)c1cccc(OCCN2CCOCC2)c1` (stereo not shown) [Example 2, 3-Benzyl-3-trichloroacetylamino—N-[(3-(2-morpholinoethoxy)phenyl)-N-[(1,3,4-thiadiazol-2-yl)aminocarbonyl)amino]methylcyclopentene], the “% Inhibition” value was determined as 17%.
